Experiment [1] concerns the target T1, BmPPI (Bombyx mori, UniProt Q1HQ20).
T1 construct: cyclophilin superfamily
T1 sequence (Q1HQ20 1-171): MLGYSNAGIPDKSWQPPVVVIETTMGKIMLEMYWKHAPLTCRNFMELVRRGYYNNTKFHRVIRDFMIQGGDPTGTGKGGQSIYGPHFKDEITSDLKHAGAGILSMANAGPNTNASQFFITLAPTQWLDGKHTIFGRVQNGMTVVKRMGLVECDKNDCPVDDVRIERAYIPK
Nature of the experiment: bio-layer interferometry, His-tagged protein on Ni-NTA biosensor. The class given is binding. The text has this:
bio-layer interferometry, His-tagged protein on Ni-NTA biosensor on BmPPI
On the technique in general: Biolayer interferometry detects binding as a change in optical thickness at a sensor tip.

The target in experiment [2] is Bmo.3174 (predicted B. mori cell division cycle 5-like protein, BmCDC5), DNA-binding-domain fusion (Bombyx mori (silkworm)). Nature of the experiment: two-hybrid; insect two-hybrid (I2H) in Spodoptera frugiperda Sf-9 cells co-transfected with AD, DBD and PIE-Luc vectors; luciferase read-out (lumen value) against untransfected Sf-9 cells (CK, 40); 27 °C.

Here are results for 2 compounds from PMC6628623, “Effects of Destruxin A on Silkworm’s Immunophilins” (Toxins, 2019).

The Kd is the equilibrium constant for the complex coming apart. Low readings indicate higher affinity, high ones lower affinity.

Where a SMILES comes first, the peptide text is derived from it. [ ]: non-standard residue; d: D form. dLac(3-vinyl) = C=CC[C@@H](O)C(=O)O; NMeV = CN[C@H](C(=O)O)C(C)C; NMeA = CN[C@@H](C)C(=O)O; βAla = NCCC(=O)O

The compound `C=CC[C@H]1OC(=O)CCNC(=O)[C@H](C)N(C)C(=O)[C@H](C(C)C)N(C)C(=O)[C@H]([C@@H](C)CC)NC(=O)[C@@H]2CCCN2C1=O` [DA, Destruxin A] (cyclo(I[NMeV][NMeA][βAla][dLac(3-vinyl)]P)) yielded an equilibrium dissociation constant (Kd) in experiment [1] of 1980 µM.

In the case of “peptidyl-prolyl cis-trans isomerase (BmPPI), activation-domain fusion (natural protein)”, the lumen value (luciferase, I2H) in experiment [2] was 580.
